In PubChem BioAssay (NCI):
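Cultured in 96-well plates, cells were exposed to test compound for 48 hours across five concentrations. TGI: total growth inhibition.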

Columns and labels:
Test in all cases: NCI-60 cell line screen, 48 h
UACC-257 melanoma = tested on: UACC-257 melanoma
SF-268 CNS = tested on: SF-268 CNS
786-0 renal = tested on: 786-0 renal
SK-OV-3 ovarian = tested on: SK-OV-3 ovarian
HCC-2998 colon = tested on: HCC-2998 colon
HCT-15 colon = tested on: HCT-15 colon
MDA-MB-435 = tested on: MDA-MB-435
NCI-H23 lung = tested on: NCI-H23 lung
CCRF-CEM leukemia = tested on: CCRF-CEM leukemia
NCI-H226 lung = tested on: NCI-H226 lung
A549 NSCLC = tested on: A549 NSCLC
HOP-62 NSCLC = tested on: HOP-62 NSCLC
LOX IMVI melanoma = tested on: LOX IMVI melanoma
MCF7 breast = tested on: MCF7 breast
KM12 colon = tested on: KM12 colon
EKVX NSCLC = tested on: EKVX NSCLC
RPMI-8226 leukemia = tested on: RPMI-8226 leukemia
TK-10 renal = tested on: TK-10 renal
K-562 leukemia = tested on: K-562 leukemia
M14 melanoma = tested on: M14 melanoma
MDA-MB-231 breast = tested on: MDA-MB-231 breast
NCI-H460 lung = tested on: NCI-H460 lung
OVCAR-8 ovarian = tested on: OVCAR-8 ovarian
NCI/ADR-RES ovarian = tested on: NCI/ADR-RES ovarian
SF-295 CNS = tested on: SF-295 CNS
OVCAR-3 ovarian = tested on: OVCAR-3 ovarian
IGROV1 ovarian = tested on: IGROV1 ovarian
MALME-3M melanoma = tested on: MALME-3M melanoma
BT-549 breast = tested on: BT-549 breast
SK-MEL-5 melanoma = tested on: SK-MEL-5 melanoma
SF-539 CNS = tested on: SF-539 CNS
SR leukemia = tested on: SR leukemia
SK-MEL-28 melanoma = tested on: SK-MEL-28 melanoma
SK-MEL-2 melanoma = tested on: SK-MEL-2 melanoma
OVCAR-5 ovarian = tested on: OVCAR-5 ovarian
ACHN renal = tested on: ACHN renal
CAKI-1 renal = tested on: CAKI-1 renal
HS 578T breast = tested on: HS 578T breast
SW-620 colon = tested on: SW-620 colon
SNB-19 CNS = tested on: SNB-19 CNS
MDA-N = tested on: MDA-N
T-47D breast = tested on: T-47D breast
COLO 205 colon = tested on: COLO 205 colon
MOLT-4 leukemia = tested on: MOLT-4 leukemia
SN12C renal = tested on: SN12C renal
PC-3 prostate = tested on: PC-3 prostate
UO-31 renal = tested on: UO-31 renal
HCT-116 colon = tested on: HCT-116 colon
HT29 colon = tested on: HT29 colon
OVCAR-4 ovarian = tested on: OVCAR-4 ovarian
NCI-H522 lung = tested on: NCI-H522 lung
U251 CNS = tested on: U251 CNS
DU-145 prostate = tested on: DU-145 prostate
A498 renal = tested on: A498 renal
HL-60(TB) leukemia = tested on: HL-60(TB) leukemia
UACC-62 melanoma = tested on: UACC-62 melanoma

## CC1=CC(O)(c2ccccc2)C(N2CCOCC2)N1O (configuration not stated)
UACC-257 melanoma
  TGI: > 100 µM
SF-268 CNS
  TGI: > 100 µM
786-0 renal
  TGI: > 100 µM
SK-OV-3 ovarian
  TGI: > 100 µM
HCC-2998 colon
  TGI: > 100 µM
HCT-15 colon
  TGI: > 100 µM
MDA-MB-435
  TGI: > 100 µM
NCI-H23 lung
  TGI: > 100 µM
CCRF-CEM leukemia
  TGI: > 100 µM
NCI-H226 lung
  TGI: > 100 µM
A549 NSCLC
  TGI: > 100 µM
HOP-62 NSCLC
  TGI: > 100 µM
LOX IMVI melanoma
  TGI: > 100 µM
MCF7 breast
  TGI: > 100 µM
KM12 colon
  TGI: > 100 µM
EKVX NSCLC
  TGI: > 100 µM
RPMI-8226 leukemia
  TGI: > 100 µM
TK-10 renal
  TGI: > 100 µM
K-562 leukemia
  TGI: > 100 µM
M14 melanoma
  TGI: > 100 µM
MDA-MB-231 breast
  TGI: > 100 µM
NCI-H460 lung
  TGI: > 100 µM
OVCAR-8 ovarian
  TGI: > 100 µM
NCI/ADR-RES ovarian
  TGI: > 100 µM
SF-295 CNS
  TGI: > 100 µM
OVCAR-3 ovarian
  TGI: > 100 µM
IGROV1 ovarian
  TGI: > 100 µM
MALME-3M melanoma
  TGI: > 100 µM
BT-549 breast
  TGI: > 100 µM
SK-MEL-5 melanoma
  TGI: > 100 µM
SF-539 CNS
  TGI: > 100 µM
SR leukemia
  TGI: > 100 µM
SK-MEL-28 melanoma
  TGI: > 100 µM
SK-MEL-2 melanoma
  TGI: > 100 µM
OVCAR-5 ovarian
  TGI: > 100 µM
ACHN renal
  TGI: > 100 µM
CAKI-1 renal
  TGI: > 100 µM
HS 578T breast
  TGI: > 100 µM
SW-620 colon
  TGI: > 100 µM
SNB-19 CNS
  TGI: > 100 µM
MDA-N
  TGI: > 100 µM
T-47D breast
  TGI: > 100 µM
COLO 205 colon
  TGI: > 100 µM
MOLT-4 leukemia
  TGI: > 100 µM
SN12C renal
  TGI: > 100 µM
PC-3 prostate
  TGI: > 100 µM
UO-31 renal
  TGI: > 100 µM
HCT-116 colon
  TGI: > 100 µM
HT29 colon
  TGI: > 100 µM
OVCAR-4 ovarian
  TGI: > 100 µM
NCI-H522 lung
  TGI: > 100 µM
U251 CNS
  TGI: > 100 µM

## CNC(=O)Oc1ccc(C(=S)Nc2ccc(Br)cc2)cc1
UACC-257 melanoma
  TGI: > 100 µM
SF-268 CNS
  TGI: > 100 µM
786-0 renal
  TGI: 60.5 µM
SK-OV-3 ovarian
  TGI: > 100 µM
HCC-2998 colon
  TGI: 41.4 µM
HCT-15 colon
  TGI: 43.1 µM
MDA-MB-435
  TGI: 63.9 µM
NCI-H23 lung
  TGI: 38.3 µM
CCRF-CEM leukemia
  TGI: 18.3 µM
DU-145 prostate
  TGI: 81 µM
A549 NSCLC
  TGI: > 100 µM
HOP-62 NSCLC
  TGI: > 100 µM
LOX IMVI melanoma
  TGI: 27 µM
MCF7 breast
  TGI: 83.4 µM
A498 renal
  TGI: 53.3 µM
KM12 colon
  TGI: 35.9 µM
EKVX NSCLC
  TGI: 42 µM
RPMI-8226 leukemia
  TGI: > 100 µM
K-562 leukemia
  TGI: 76.1 µM
M14 melanoma
  TGI: 46.4 µM
OVCAR-8 ovarian
  TGI: 22.4 µM
NCI/ADR-RES ovarian
  TGI: 54.7 µM
OVCAR-3 ovarian
  TGI: 49.4 µM
IGROV1 ovarian
  TGI: 18.7 µM
MALME-3M melanoma
  TGI: 98.8 µM
BT-549 breast
  TGI: 44.2 µM
SK-MEL-5 melanoma
  TGI: 34.9 µM
SF-539 CNS
  TGI: 47.2 µM
SR leukemia
  TGI: 46.1 µM
SK-MEL-28 melanoma
  TGI: 62.7 µM
HL-60(TB) leukemia
  TGI: 24.8 µM
SK-MEL-2 melanoma
  TGI: 46 µM
OVCAR-5 ovarian
  TGI: 77.4 µM
ACHN renal
  TGI: > 100 µM
CAKI-1 renal
  TGI: 51.3 µM
HS 578T breast
  TGI: > 100 µM
SW-620 colon
  TGI: > 100 µM
SNB-19 CNS
  TGI: > 100 µM
MDA-N
  TGI: 57.3 µM
T-47D breast
  TGI: 80.2 µM
COLO 205 colon
  TGI: 39.2 µM
MOLT-4 leukemia
  TGI: 40.4 µM
PC-3 prostate
  TGI: 83.3 µM
UO-31 renal
  TGI: 60 µM
HCT-116 colon
  TGI: 46.1 µM
UACC-62 melanoma
  TGI: 30.1 µM
HT29 colon
  TGI: 44.8 µM
OVCAR-4 ovarian
  TGI: 77.1 µM
NCI-H522 lung
  TGI: 31.2 µM
U251 CNS
  TGI: 74.8 µM
